Usually melting point stands for the temperature, or range, at which the solid turns liquid.

In the case of `CCNC(=S)Nc1cnc2ccc(Nc3cc(OC)c(OC)c(OC)c3)nc2n1` [Compound 200, 1-Ethyl-3-[6-(3,4,5-trimethoxy-phenylamino)-pyrido[2,3-b]pyrazin-3-yl]-thiourea], the melting point turned out to be 238 °C. The compound `CNC(=O)Nc1cnc2ccc(-c3cc(Cl)c(O)c(Cl)c3)nc2n1` [Compound 557, 1-[6-(3,5-Dichloro-4-hydroxy-phenyl)-pyrido[2,3-b]pyrazin-3-yl]-3-methyl-urea] showed a melting point of 247 to 249 °C. Regarding `CCNC(=O)Nc1ccc2ncc(-c3cncn3C)nc2n1` [Compound 53, 1-Ethyl-3-[3-(3-methyl-3H-imidazol-4-yl)-pyrido[2,3-b]pyrazin-6-yl]-urea], the melting point fell in the range of 257 to 259 °C. In the case of `CCNC(=O)Nc1cnc2ccc(Nc3ccc(O)c(OC)c3)nc2n1` [Compound 21, 1-Ethyl-3-[6-(4-hydroxy-3-methoxy-phenylamino)-pyrido[2,3-b]pyrazin-3-yl]-urea], the melting point amounted to 255 °C. With `CCNC(=O)Nc1ccc2ncc(Nc3ccc(C(=O)OC)c(OC)c3)nc2n1` [Compound 87, 4-[6-(3-Ethyl-ureido)-pyrido[2,3-b]pyrazin-3-ylamino]-2-methoxy-benzoic acid methyl ester] the figure was 256 to 259 °C; with `CCNC(=S)Nc1ccc2ncc(Nc3ccc(C)c(OC)c3)nc2n1` [Compound 162, 1-Ethyl-3-[3-(3-methoxy-4-methyl-phenylamino)-pyrido[2,3-b]pyrazin-6-yl]-thiourea], 288 °C.

As for `COc1cc(-c2ccc3ncc(NC(=O)Nc4ccnc(N5CCOCC5)c4)nc3n2)ccc1O` [Compound 607, 1-[6-(4-Hydroxy-3-methoxy-phenyl)-pyrido[2,3-b]pyrazin-3-yl]-3-(2-morpholin-4-yl-pyridin-4-yl)-urea], the melting point lay within 260 to 263 °C.

For the compound `CCNC(=O)Nc1cnc2ccc(-c3ccncc3)nc2n1` [Compound 7, 1-Ethyl-3-(6-pyridin-4-yl-pyrido[2,3-b]pyrazin-3-yl)-urea], the melting point is 211 °C. With `CCNC(=S)Nc1ccc2ncc(N(C)c3cc(OC)c(OC)c(OC)c3)nc2n1` [Compound 706, 1-Ethyl-3-{3-[methyl-(3,4,5-trimethoxy-phenyl)-amino]-pyrido[2,3-b]pyrazin-6-yl}-thiourea], the melting point stood at 222 °C.

The compound `COc1cc(-c2ccc3ncc(NC(=O)NC4CCCCCCCCCCC4)nc3n2)ccc1O` [Compound 628, 1-Cyclododecyl-3-[6-(4-hydroxy-3-methoxy-phenyl)-pyrido[2,3-b]pyrazin-3-yl]-urea] yielded a melting point of 233 to 235 °C.

Compound `CCNC(=O)Nc1ccc2ncc(Nc3ccc(OC)c(O)c3)nc2n1` [Compound 156, 1-Ethyl-3-[3-(3-hydroxy-4-methoxy-phenylamino)-pyrido[2,3-b]pyrazin-6-yl]-urea] displayed a melting point of 281 °C. For `CCNC(=O)Nc1ccc2ncc(-c3ccc(C(=O)OC)c(F)c3)nc2n1` [Compound 143, 4-[6-(3-Ethyl-ureido)-pyrido[2,3-b]pyrazin-3-yl]-2-fluoro-benzoic acid methyl ester] the value was 250 to 252 °C; for `CCNC(=O)Nc1ccc2ncc(-c3cccc(Br)c3OC(C)C)nc2n1` [Compound 67, 1-[3-(3-Bromo-2-isopropoxy-phenyl)-pyrido[2,3-b]pyrazin-6-yl]-3-ethyl-urea], 200 to 202 °C; for `CCNC(=O)Nc1ccc2ncc(-c3cc(Cl)cc(C)c3F)nc2n1` [Compound 96, 1-[3-(5-Chloro-2-fluoro-3-methyl-phenyl)-pyrido[2,3-b]pyrazin-6-yl]-3-ethyl-urea], 258 to 259 °C. The compound `COc1cc(-c2ccc3ncc(NC(=O)N[C@@H]4C[C@H]4c4ccccc4)nc3n2)ccc1O` [Compound 603, 1-[6-(4-Hydroxy-3-methoxy-phenyl)-pyrido[2,3-b]pyrazin-3-yl]-3-((1R,2S)-2-phenyl-cyclopropyl)-urea] showed a melting point of 233 to 236 °C.

For the compound `CCNC(=O)Nc1ccc2ncc(-c3cc(C)cc(C)c3)nc2n1` [Compound 82, 1-[3-(3,5-Dimethyl-phenyl)-pyrido[2,3-b]pyrazin-6-yl]-3-ethyl-urea], the melting point is 255.3 to 257.9 °C.

`CCNC(=S)Nc1cnc2ccc(-c3ccc(C)cc3)nc2n1` [Compound 651, 1-Ethyl-3-(6-p-tolyl-pyrido[2,3-b]pyrazin-3-yl)-thiourea] yielded a melting point of 230 to 231 °C. Consider `COc1cc(Nc2cnc3ccc(NC(=S)NC(C)(C)C)nc3n2)cc(OC)c1OC` [Compound 694, 1-tert-Butyl-3-[3-(3,4,5-trimethoxy-phenylamino)-pyrido[2,3-b]pyrazin-6-yl]-thiourea], for which the melting point lay within 218 to 220 °C.

For `COc1cc(-c2ccc3ncc(NC(=O)Nc4c(C)noc4C)nc3n2)ccc1O` [Compound 27, 1-(3,5-Dimethyl-isoxazol-4-yl)-3-[6-(4-hydroxy-3-methoxy-phenyl)-pyrido[2,3-b]pyrazin-3-yl]-urea], the melting point is 249 to 252 °C. `CCNC(=O)Nc1cnc2ccc(N3CCN(C)CC3)nc2n1` [Compound 227, 1-Ethyl-3-[6-(4-methyl-piperazin-1-yl)-pyrido[2,3-b]pyrazin-3-yl]-urea] had a melting point of 214 to 216 °C.

Regarding `CCNC(=S)Nc1cnc2ccc(Nc3ccc(O)c(Cl)c3)nc2n1` [Compound 208, 1-[6-(3-Chloro-4-hydroxy-phenylamino)-pyrido[2,3-b]pyrazin-3-yl]-3-ethyl-thiourea], the melting point was found to be 203 °C.

`CCNC(=O)Nc1cnc2ccc(-c3ccc(OC)c(OC)c3)nc2n1` [Compound 22, 1-[6-(3,4-Dimethoxy-phenyl)-pyrido[2,3-b]pyrazin-3-yl]-3-ethyl-urea] displayed a melting point of more than 235 °C. `COc1ccc(-c2ccc3ncc(NC(=O)NC(C)(C)C)nc3n2)cc1OC` [Compound 568, 1-tert-Butyl-3-[6-(3,4-dimethoxy-phenyl)-pyrido[2,3-b]pyrazin-3-yl]-urea] returned a melting point of 230 to 233 °C.

`CCNC(=O)Nc1ccc2ncc(-c3ccccc3OCC)nc2n1` [Compound 102, 1-[3-(2-Ethoxy-phenyl)-pyrido[2,3-b]pyrazin-6-yl]-3-ethyl-urea] registered a melting point of 220 to 222 °C.

As to `CCNC(=O)Nc1cnc2ccc(-c3cc(Cl)c(O)c(Cl)c3)nc2n1` [Compound 9, 1-[6-(3,5-Dichloro-4-hydroxy-phenyl)-pyrido[2,3-b]pyrazin-3-yl]-3-ethyl-urea], the melting point is more than 300 °C. Turning to `CCNC(=O)Nc1ccc2ncc(-c3cccc(Cl)c3F)nc2n1` [Compound 99, 1-[3-(3-Chloro-2-fluoro-phenyl)-pyrido[2,3-b]pyrazin-6-yl]-3-ethyl-urea], the melting point is 275 °C. For `COc1ccc(-c2ccc3ncc(NC(=O)Nc4ccc(C)cc4)nc3n2)cc1OC` [Compound 578, 1-[6-(3,4-Dimethoxy-phenyl)-pyrido[2,3-b]pyrazin-3-yl]-3-p-tolyl-urea], the melting point was 263 to 266 °C. For `CCNC(=S)Nc1ccc2ncc(Nc3ccc(O)c(Cl)c3)nc2n1` [Compound 441, 1-[3-(3-Chloro-4-hydroxy-phenylamino)-pyrido[2,3-b]pyrazin-6-yl]-3-ethyl-thiourea] the value was 220 °C; for `C=CCNC(=O)Nc1cnc2ccc(-c3ccc(OC)c(OC)c3)nc2n1` [Compound 575, 1-Allyl-3-[6-(3,4-dimethoxy-phenyl)-pyrido[2,3-b]pyrazin-3-yl]-urea], 236 to 238 °C; for `CCNC(=O)Nc1cnc2ccc(N3CCCN(C)CC3)nc2n1` [Compound 233, 1-Ethyl-3-[6-(4-methyl-[1,4]diazepan-1-yl)-pyrido[2,3-b]pyrazin-3-yl]-urea], 199 to 201 °C. For `COc1cc(-c2ccc3ncc(NC(=O)NC(C)(C)CC(C)(C)C)nc3n2)ccc1O` [Compound 613, 1-[6-(4-Hydroxy-3-methoxy-phenyl)-pyrido[2,3-b]pyrazin-3-yl]-3-(1,1,3,3-tetramethyl-butyl)-urea], the melting point was in the range of 232 to 236 °C. For `CCNC(=O)Nc1cnc2ccc(Nc3ccc(C)c(OC)c3)nc2n1` [Compound 209, 1-Ethyl-3-[6-(3-methoxy-4-methyl-phenylamino)-pyrido[2,3-b]pyrazin-3-yl]-urea], the melting point stood at 255 °C.

As for `COc1cc(Nc2cnc3ccc(NC(=S)NC4CCCCC4)nc3n2)cc(OC)c1OC` [Compound 690, 1-Cyclohexyl-3-[3-(3,4,5-trimethoxy-phenylamino)-pyrido[2,3-b]pyrazin-6-yl]-thiourea], the melting point was found to be 248 °C.

In turn, `CCNC(=S)Nc1ccc2ncc(Nc3ccc(O)c([N+](=O)[O-])c3)nc2n1` [Compound 491, 1-Ethyl-3-[3-(4-hydroxy-3-nitro-phenylamino)-pyrido[2,3-b]pyrazin-6-yl]-thiourea] displayed a melting point of 250 °C.

The compound `CCNC(=O)Nc1ccc2ncc(-c3ccc(F)cc3OCC)nc2n1` [Compound 112, 1-[3-(2-Ethoxy-4-fluoro-phenyl)-pyrido [2,3-b]pyrazin-6-yl]-3-ethyl-urea] had a melting point of 229 to 231 °C. With `COc1cc(Nc2cnc3ccc(NC(=S)NCCc4ccccc4)nc3n2)cc(OC)c1OC` [Compound 699, 1-Phenethyl-3-[3-(3,4,5-trimethoxy-phenylamino)-pyrido[2,3-b]pyrazin-6-yl]-thiourea] the figure was 197 to 200 °C. Compound `CCNC(=O)Nc1ccc2ncc(Nc3ccccc3OC)nc2n1` [Compound 153, 1-Ethyl-3-[3-(2-methoxy-phenylamino)-pyrido[2,3-b]pyrazin-6-yl]-urea] yielded a melting point of 225 °C. `CCNC(=O)Nc1ccc2ncc(-c3ccccc3C)nc2n1` [Compound 105, 1-Ethyl-3-(3-o-tolyl-pyrido[2,3-b]pyrazin-6-yl)-urea]: the melting point is 218 to 220 °C. With `CCNC(=O)Nc1ccc2ncc(-c3ccccc3Cl)nc2n1` [Compound 104, 1-[3-(2-Chloro-phenyl)-pyrido[2,3-b]pyrazin-6-yl]-3-ethyl-urea] the figure was 310 °C; with `CCCNC(=O)Nc1cnc2ccc(-c3ccc(OC)c(OC)c3)nc2n1` [Compound 570, 1-[6-(3,4-Dimethoxy-phenyl)-pyrido[2,3-b]pyrazin-3-yl]-3-propyl-urea], 246 to 248 °C.

Values taken from patent US8536332B2, “Modulating signal transduction pathways with substituted pyridol [2,3-b] pyrazines” (Aeterna Zentaris GmbH, priority 2007, dated 2013).
